Several values for one entry are separate records, joined by “and”; a condition that tells them apart may be missing. Identical values can stand only once.
Legend:
[1] = Biodistribution, 2nd study (HSA Sn-117m annexin) in collagen-induced arthritic rats; assay type: in vivo, Rat; conditions: dose 50 (mCi), at sacrifice Day 14
Experimental: (§1) In order to test the efficacy of the present invention, a standard arthritic rat model was employed. Specifically, rodents were injected with collagen, which induced a reaction similar to rheumatoid arthritis. […] Two different studies were conducted.
(§2) At around day 14, the animals were sacrificed and tissues sent for histological analyses.

[2] = system: standard arthritic rat model (collagen induced rheumatoid arthritis-like); assay: Histopathology of knees, 2nd study (HSA Sn-117m annexin); assay type: in vivo; conditions: for Bone Resorption Score / Cartilage Damage Score / Inflammation Score / Pannus Score: score 0-5, 0 = normal, 5 = severe
Experimental: as §1, §2

[3] = L knee (injected), ~50 uCi into L synovium
[4] = R knee, ~50 uCi into L synovium
[5] = mean of all animals, both knees, both routes, score 0-5

For “Sn-117m Annexin: High specific activity tin-117m attached to annexin V through an aminobenzyl DOTA linker”, the “Right Leg (% ID)” value ([1]; L Synovium injection) was 0.1 % ID, the “Left leg (% ID)” value ([1]; Retro-orbital injection) was 0.1 % ID and the “Right Leg (% ID)” value ([1]; Retro-orbital injection) was 0.1 % ID. The “Summed Histopathology Scores” value [2, 3] was 9, the “Bone Resorption Score” value [2, 3] was 1 and the “Cartilage Damage Score” value [2, 3] was 2. The “Inflammation Score” value [2, 3] was 5, the “Pannus Score” value [2, 3] was 1 and the “Summed Histopathology Scores” value ([2]; L knee, ~50 uCi retro-orbital) was 8 and 4. The “Cartilage Damage Score” value ([2]; L knee, ~50 uCi retro-orbital) was 1 and 0.5, the “Inflammation Score” value ([2]; L knee, ~50 uCi retro-orbital) was 5 and 3 and the “Pannus Score” value ([2]; L knee, ~50 uCi retro-orbital) was 1 and 0.5. For the same substance, the “Summed Histopathology Scores” value [2, 4] was 9 and 7.5, the “Bone Resorption Score” value [2, 4] was 1 and 0.5 and the “Cartilage Damage Score” value [2, 4] was 2 and 1. The “Inflammation Score” value [2, 4] was 5, the “Pannus Score” value [2, 4] was 1 and the “Cartilage Damage Score” value ([2]; R knee, ~50 uCi retro-orbital) was 0.5. The “Pannus Score” value ([2]; R knee, ~50 uCi retro-orbital) was 0.5, the “Effectiveness (in words)” value ([2]; administered directly into the synovium, second study) was “appears to be effective” and the “Summed Histopathology Scores, Mean” value ([2]; mean of all animals, both knees, both routes) was 7.04. For the same substance, the “Bone Resorption Score, Mean” value [2, 5] was 0.75, the “Cartilage Damage Score, Mean” value [2, 5] was 1.33 and the “Inflammation Score, Mean” value [2, 5] was 4.04. The “Pannus Score, Mean” value [2, 5] was 0.92.
